From patent US10940139B2, “Compounds that interact with the Ras superfamily for the treatment of cancers, inflammatory diseases, rasopathies, and fibrotic disease” (Shy Therapeutics LLC, priority 2017, dated 2021)

target: KRas G12D/Q61H double mutant (Homo sapiens (Human), UniProt P01116, G12D/Q61H); assay: Ras GTP binding domain inhibition assay (labeled GTP); conditions: 20 μM compound; KRas G12D/Q61H double mutant; read-out: % Inhibition at 20 μM of K-Ras mutant and wild-type protein, KRas G12D Q61H
Sequence (P01116-2 other isoform, or with tags, fused parts or gaps G12D/Q61H): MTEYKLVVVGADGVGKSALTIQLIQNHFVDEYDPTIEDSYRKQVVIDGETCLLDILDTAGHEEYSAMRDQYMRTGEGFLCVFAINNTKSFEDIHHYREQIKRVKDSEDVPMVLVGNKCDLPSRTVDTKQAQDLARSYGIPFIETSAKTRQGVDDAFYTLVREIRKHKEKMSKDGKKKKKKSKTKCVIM
Protocol: Buffer-I: • 50 mM Tris, pH 7.5 • 150 mM NaCl (optional) • 1 mM MgCl2 • 1 mM DTT. • KRas G12D mutant protein was expressed as a His-tagged protein. Purified His-KRas G12D protein was diluted in buffer-I to a final concentration of 3-10 μg/ml. • 200 μl of the diluted His-KRas G12D protein was added to a nickel coated 96 well plate and incubated overnight at 4° C. • The next day, wells were washed 3× in 200 μl of Buffer-I. • Then 200 μl of Buffer-I were added to each well in the presence of 1% DMSO. • Tested compounds were added to the protein-coated wells at a concentration of 20 μM, and incubated for 3 hours at room temperature. While performing IC50 measurements a serial dilution of all tested concentrations was prepared.
Then 22 μl of Cy3-GTP or Cy5-GTP was added to each well. The labeled GTP was incubated for 45 min. at room temperature. • Following GTP incubation, wells were washed 3× in Buffer-I, and 200 μl of Buffer-I were added to each well. • Following washes, the amount of bound labeled-GTP was measured with an Eppendorf AF2200 plate reader.
By substituting KRas G12D mutant protein with KRas G12C mutant, KRas wild type, KRas Q61H mutant, KRas G12D/Q61H double mutant or KRas G12C/Q61H double mutant under the assay conditions described above, KRas G12C mutant KRas wild type, KRas Q61H mutant, KRas G12D/Q61H double mutant and KRas G12C/Q61H double mutant inhibition, respectively, were each determined.

inhibition at 20 µM	Compound
25 to 50%	COC(=O)c1ccc(COC(=O)c2oc3ccccc3c2COC(C)C)o1
25 to 50%	CC(O)(c1ccc(OCc2csc(Cc3ccccc3)n2)cc1)C(F)(F)F (stereo not shown)
25 to 50%	Cc1ccc(C)c(OCc2nnc(SCc3c(C#N)c(C)nn3-c3ccccc3)o2)c1
25 to 50%	O=C(c1ccc(CSc2nc3ccccc3[nH]2)cc1)N1N=CCC1(O)C(F)(F)F (stereo not shown)
25 to 50%	COC(=O)c1ccc(CN2CC(NC(=O)OC(C)(C)C)CCC2C(F)(F)F)cc1 (stereo not shown)
25 to 50%	Cc1cc(C)c(-c2csc(C3CC3)n2)cc1C
25 to 50%	COc1cccc(CN(C)S(=O)(=O)N(C)Cc2ccc(F)cc2)c1
1 to 25%	CC(C)n1cnnc1CNCc1ccc(OCc2ccccc2)cc1OCc1ccccc1
25 to 50%	CCCc1cc(=O)oc2cc(OCc3cc(C(=O)OC)c(C)o3)ccc12
25 to 50%	CCOc1ccc(C2=NN(C(=O)CC)C(c3ccc(CC)cc3)C2)cc1 (stereo not shown)
1 to 25%	CC(C)CC(NC(=O)OC(C)(C)C)c1noc(Cc2c[nH]c3ccccc23)n1 (stereo not shown)
1 to 25%	CCOc1ccc(Oc2ccc(C(F)(F)F)cc2NC(=O)CC(NC(C)=O)c2ccccc2)cc1 (stereo not shown)

same assay, conditions: 20 μM compound; read-out: % Inhibition at 20 μM KRas G12D Q61H

inhibition at 20 µM	Compound
25 to 50%	Cc1cccc(C)c1Oc1ccccc1NCc1nnc(C2CC2)o1
1 to 25%	CC1(N)CCN(C(=O)c2csc3c(O)nc(N)nc23)CC1
25 to 50%	FC(F)(F)c1ccc(N2CCCC2)c(NCc2nc(-c3ccco3)no2)c1
25 to 50%	COCCN(CCOC)c1nc(-c2ccccn2)nc2c1CCC2
1 to 25%	Cc1csc(C2CN(Cc3ccn(C)c(=O)c3)CCO2)n1 (stereo not shown)
25 to 50%	CC(C)Cc1csc2[nH]c(-c3ccccn3)nc(=O)c12
25 to 50%	Cc1nn(C)c(C)c1CC(=O)Nc1nnc(-c2ccccn2)[nH]1
25 to 50%	N#Cc1ccc(C2(C(=O)Nc3ccnc(-c4ccccn4)n3)CCCC2)cc1
1 to 25%	CC1CCN(C(=O)c2csc3c(O)nc(N)nc23)CC1 [drawing 2658]
1 to 25%	COc1ccc(CCNC(=O)c2cc(S(=O)(=O)N3CCOCC3)ccc2OC)cc1OC
1 to 25%	Cn1nc(-c2ccncc2)cc1NC(=O)c1cccnc1
1 to 25%	COc1ccccc1CN(Cc1cccs1)C(=O)c1ccc(-c2nc(C)no2)cc1
25 to 50%	Cc1ccc(-c2cc(C(=O)N(C3CC3)C(C)c3ccco3)on2)cc1 (stereo not shown)
1 to 25%	Cc1nc(-c2ccccn2)sc1C(=O)NCCNc1ncccn1
25 to 50%	COc1cc(CC(=O)Nc2nnc(-c3ccccn3)[nH]2)cc(OC)c1OC
25 to 50%	O=C(c1csc2c(O)nc(-c3ccccn3)nc12)N1CCc2ccccc2CC1 [drawing 2690]
25 to 50%	COc1ccc(S(=O)(=O)N(CC(=O)N2CCCc3ccccc32)Cc2ccco2)cc1
25 to 50%	CC(c1ccc(Cl)cc1Cl)N(C)Cc1nnc(-c2ccccc2)o1 (stereo not shown)
1 to 25%	Nc1nc(-c2ccccn2)nc2scc(-c3ccccc3)c12 [drawing 2822]
25 to 50%	Nc1nc(O)c2scc(C(=O)N3CCN(c4ccncc4)CC3)c2n1

same assay, conditions: 20 μM; read-out: KRas G12D Q61H % Inh.

inhibition at 20 µM	Compound
51 to 75%	O=C(Cn1c(=O)[nH]c2ccccc21)Nc1nnc(-c2ccccn2)[nH]1 [drawing 2536]
51 to 75%	O=C(Nc1nnc(-c2ccccn2)[nH]1)c1ccc2c(c1)CCO2 [drawing 2455]
51 to 75%	C[C@H](NS(=O)(=O)c1ccccc1F)C(=O)Nc1nnc(-c2ccccn2)[nH]1 [drawing 2478]
25 to 50%	CCOc1cc(S(=O)(=O)N(Cc2ccccc2)Cc2ccccc2)c(OCC)cc1C [drawing 2624]
25 to 50%	Cn1ccc(C(=O)Nc2nnc(-c3ccccn3)[nH]2)cc1=O [drawing 2476]
51 to 75%	CCc1cc(NNC(=O)c2ccc(C#N)cc2)nc(-c2ccccn2)n1 [drawing 2605]
51 to 75%	N#Cc1ccccc1OCC(=O)Nc1nnc(-c2ccccn2)[nH]1 [drawing 2488]
51 to 75%	Cc1nc2nc(C(F)(F)F)nn2c(C)c1CC(=O)Nc1nnc(-c2ccccn2)[nH]1 [drawing 2533]
